Our source for the IC50 values is patent US11584759B2, “Macrocyclic kinase inhibitor” (HITGEN INC., priority 2018, dated 2023).

Each structure is given as a SMILES string.

Test [1] deals with TRKA (G667C) (Homo sapiens, UniProt P04629, G667C). Nature of the test: Detection of TRK inhibitory activity (ADP-Glo kinase assay), TRKA (G667C). It counts as biochemical. On the procedure:
(§1) An enzyme reaction buffer was prepared containing 25 mM MOPS, 5 mM MgCl2, 500 μM DTT and 0.005% Triton, and then adjusted to pH 7.5.
(§2) The test compound was diluted with DMSO to 200 times of the desired final concentration, and mixed evenly, then 3 μL of the solution was pipetted to 117 μL of enzyme reaction buffer and mixed thoroughly. Then, 3 μL of the enzyme reaction buffer containing the test compound was pipetted to a 96-well PCR plate. The positive and negative control wells were filled with 3 μL of enzyme reaction buffer containing 2.5% DMSO, respectively. TRK protein was diluted to 0.4 ng/μL with the enzyme reaction buffer, and 6 μL of diluted TRK protein was added to each well except for the well for the blank control group, in which 6 μL of the enzyme reaction buffer was added. The reaction plate was centrifuged at 1000 rpm/min for 1 minute, and the compound and TRK were pre-incubated at room temperature for 10 minutes. A mixed solution with ATP at a concentration of 160 μM and substrate at a concentration of 1 μM was prepared with the enzyme reaction buffer, and 6 μL of the mixed solution was added to each reaction well. The reaction plate was centrifuged at 1000 rpm/min for 1 minute, and incubated at room temperature for 35 minutes. After the enzyme reaction was completed, 15 μL of ADP-Glo was added to each reaction well. The reaction plate was centrifuged at 1000 rpm/min for 1 minute, and incubated at room temperature for 40 minutes. Then 15 μL of the reaction solution from each well was transferred to a 384-well plate, and then 15 μL of detection substrate was added to each corresponding well of the 384-well plate. The 384-well plate was centrifuged at 1000 rpm/min for 1 minute, and incubated at room temperature for 40 minutes. After the reaction, a microplate reader was used to read the cold luminescence signal value in the 384-well plate.
(§3) The residual viability percentage of each concentration was calculated with the following formula: Residual viability (%)=100*(Lumincompond−Luminblank control)/(Luminpostive control−Luminblank control)
(§4) Then, GraphPad 5.0 was fitted to the effect curve to calculate the IC50 value.
In general terms: In ADP-Glo the light output rises with the ADP produced.

Test [2] addresses T1, TRKA Protein (wild type) (Homo sapiens, UniProt P04629).
T1 construct: purchased abcam ab60887
As to the kind of experiment: Detection of TRK inhibitory activity (ADP-Glo kinase assay), TRKA wild type. It counts as biochemical. To be noted: 35 min at room temperature. As for the experimental part: as §1, §2, §3, §4

TRKA (G667C), sequence (P04629 33-796 G667C): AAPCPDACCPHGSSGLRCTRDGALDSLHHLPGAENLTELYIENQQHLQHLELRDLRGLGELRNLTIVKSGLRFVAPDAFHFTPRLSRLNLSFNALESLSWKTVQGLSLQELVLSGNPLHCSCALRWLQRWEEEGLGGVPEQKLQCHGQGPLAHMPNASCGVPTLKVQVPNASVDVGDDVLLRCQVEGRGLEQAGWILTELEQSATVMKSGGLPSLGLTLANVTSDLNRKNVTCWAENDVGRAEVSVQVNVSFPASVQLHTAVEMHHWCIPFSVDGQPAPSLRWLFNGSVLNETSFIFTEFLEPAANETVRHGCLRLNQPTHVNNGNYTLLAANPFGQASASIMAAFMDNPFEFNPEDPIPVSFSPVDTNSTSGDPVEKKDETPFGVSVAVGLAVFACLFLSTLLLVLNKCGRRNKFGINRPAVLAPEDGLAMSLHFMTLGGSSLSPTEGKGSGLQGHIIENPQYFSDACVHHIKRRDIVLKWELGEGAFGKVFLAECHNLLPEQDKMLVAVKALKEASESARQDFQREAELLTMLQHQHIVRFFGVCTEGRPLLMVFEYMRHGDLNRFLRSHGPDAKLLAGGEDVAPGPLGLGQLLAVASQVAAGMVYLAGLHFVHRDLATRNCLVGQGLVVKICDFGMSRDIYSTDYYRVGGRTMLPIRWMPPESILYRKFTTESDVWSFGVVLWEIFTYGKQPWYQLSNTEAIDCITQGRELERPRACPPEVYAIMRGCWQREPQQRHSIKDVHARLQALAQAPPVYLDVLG
T1 sequence (P04629 33-796): as the sequence (P04629 33-796 G667C) above, with C635G counted along it

`CCOC(=O)c1cnc2ccc3nc2c1NCCCOc1ccc(F)cc1[C@H]1CCCN31` [Example 9, ethyl (6R)-9-fluoro-13-oxa-2,17,21,25-tetraazapentacyclo [16.6.2.0^2,^6.0^7,^12.0^22,^26]hexacosane-1(25),7,9,11,18(26),19,21,23-octane-19-carboxylate]: the IC50 in test [1] was over 500 nM; in test [2], under 50 nM. With `C[C@H]1CCOc2ccc(F)cc2[C@H]2CCCN2c2ccc3ncc(C#N)c(c3n2)N1` [Example 8, (6R,16S)-9-fluoro-16-methyl-3-oxa-2,17,21,25-tetraazapentacyclo [16.6.2.0^2,^6.0^7,^12.0^22,^26]hexacosane-1(25),7,9,11,18(26),19,21,23-octane-19-nitrile], in test [2], the IC50 is under 50 nM. As for `NC(=O)c1cnc2ccc3nc2c1NCCCOc1ccc(F)cc1[C@H]1CCCN31` [Example 11, (6R)-9-fluoro-13-oxa-2,17,21,25-tetraazapentacyclo [16.6.2.0^2,^6.0^7,^12.0^22,^26]hexacosane-1(25),7,9,11,18(26),19,21,23-octane-19-carboxamide], the half-inhibitory concentration (IC50) in test [1] and in test [2] was under 50 nM in each case.

With `C[C@H]1CCNc2c(C#N)cnc3ccc(nc23)N2CCC[C@@H]2c2cc(F)ccc2O1` [Example 2, (6R,14S)-9-fluoro-14-methyl-3-oxa-2,17,21,25-tetraazapentacyclo [16.6.2.0^2,^6.0^7,^12.0^22,^26]hexacosane-1(25),7,9,11,18(26),19,21,23-octane-19-nitrile], the IC50 in test [1] and in test [2] was under 50 nM in each case.

On to `C[C@@H]1CCCc2ncc(F)cc2[C@H]2CCCN2c2ccc3ncnc(c3n2)N1` [Example 16, (6R,16R)-9-fluoro-16-methyl-2,11,17,19,21,25-hexaazapentacyclo [16.6.2.0^2,^6.0^7,^12.0^22,^26]hexacosane-1(25),7,9,11,18(26),19,21,23-octane], for which the concentration for half-maximal inhibition (IC50) in test [1] and in test [2] was under 50 nM in each case.

Compound `C[C@@H]1CCOc2ccc(F)cc2[C@@H]2CCCN2c2ccc3ncc(C#N)c(c3n2)N1` [Example 14, (6S,16R)-9-fluoro-16-methyl-3-oxa-2,17,21,25-tetraazapentacyclo [16.6.2.0^2,^6.0^7,^12.0^22,^26]hexacosane-1(25),7,9,11,18(26),19,21,23-octane-19-nitrile] registered an IC50 in test [2] of 50 to 500 nM. Turning to `N#Cc1cnc2ccc3nc2c1NCCCOc1ccc(F)cc1[C@H]1CCCN31` [Example 12, (6R)-9-fluoro-13-oxa-2,17,21,25-tetraazapentacyclo [16.6.2.0^2,^6.0^7,^12.0^22,^26]hexacosane-1(25),7,9,11,18(26),19,21,23-octane-19-nitrile], the concentration for half-maximal inhibition (IC50) in test [1] and in test [2] was under 50 nM in each case. For `C[C@@H]1CCOc2ccc(F)cc2CN(C)c2ccc3ncnc(c3n2)N1` [Example 5, (13R)-6-fluoro-2,13-dimethyl-10-oxa-2,14,16,18,22-pentaazatetracyclo[13.6.2.0^4,^9.0^19,^23]tricosane-1(22),4,6,8,15(23),16,18,20-octane], the IC50 in test [1] and in test [2] was under 50 nM throughout.

For `O=C(O)c1cnc2ccc3nc2c1NCCCOc1ccc(F)cc1[C@H]1CCCN31` [Example 10, (6R)-9-fluoro-13-oxa-2,17,21,25-tetraazapentacyclo [16.6.2.0^2,^6.0^7,^12.0^22,^26]hexacosane-1(25),7,9,11,18(26),19,21,23-octane-19-carboxylic acid], the half-inhibitory concentration (IC50) in test [2] is 50 to 500 nM. In turn, `C[C@H]1CCOc2ccc(F)cc2[C@@H]2CCCN2c2ccc3ncc(C#N)c(c3n2)N1` [Example 13, (6S,16S)-9-fluoro-16-methyl-13-oxa-2,17,21,25-tetraazapentacyclo [16.6.2.0^2,^6.0^7,^12.0^22,^26]hexacosane-1(25),7,9,11,18(26),19,21,23-octane-19-nitrile] gave an IC50 in test [2] of 50 to 500 nM. On the same count and under the same terms, in the case of `CN1Cc2cc(F)ccc2OCCNc2ncnc3ccc1nc23` [Example 4, 6-fluoro-2-methyl-10-oxa-2,13,15,17,21-pentaazatetracyclo [12.6.2.0^4,9.0^18,^22]docosane-1(21),4,6,8,14(22),15,17,19-octane] it was 50 to 500 nM.

Usually IC50 stands for the midpoint of a concentration-inhibition curve.
